Measurements reported in patent US9284325B2, “Spectinamides as anti-tuberculosis agents” (UNIVERSITY OF TENNESSEE RESEARCH FOUNDATION, priority 2009, dated 2016).
Where a name gives a salt, the structure may show the parent alone.

Assays:
[1] = system: Burkholderia cepacia ATCC 25416; assay: MIC determination by microbroth dilution; type: cell-based; conditions: ATCC25416, read-out: MIC B. cepcia
E. faecalis ATCC 33186 = assay: MIC determination by microbroth dilution; type: cell-based, Enterococcus faecalis; conditions: Enterococcus faecalis, ATCC33186
E. coli ribosomes = type: biochemical; conditions: E. coli S30 transcription/translation assay
[2] = system: S. aureus 8325 or strain ATCC 29213; assay: MIC determination by microbroth dilution; type: cell-based, Staphylococcus aureus; conditions: Staphylococcus aureus, ATCC29213; S. aureus 8325 or strain ATCC 29213 (for 1471-1544)
E. coli K12 = assay: MIC determination by microbroth dilution; type: cell-based, Escherichia coli; conditions: Escherichia coli, K12
E. coli K12 ΔtolC = assay: microbe, parasite or virus in culture; type: cell-based; conditions: Escherichia coli, read-out: MIC E. coli K12 ΔtolC
[3] = system: Klebsiella pneumoniae ATCC 33495; assay: MIC determination by microbroth dilution; type: cell-based; conditions: ATCC33495
P. aeruginosa PAO1 = assay: MIC determination by microbroth dilution; type: cell-based, Pseudomonas aeruginosa; conditions: Pseudomonas aeruginosa
[4] = system: Strep. pneumoniae DAW27 or strain R6; assay: MIC determination by microbroth dilution; type: cell-based, Streptococcus pneumoniae; conditions: Streptococcus pneumoniae; Strep. pneumoniae DAW27 or strain R6 (for 1443-1544); read-out: MIC S. pneumoniae
[5] = system: Strep. pyogenes ATCC 700294; assay: MIC determination by microbroth dilution; type: cell-based, Streptococcus pyogenes; conditions: Streptococcus pyogenes, ATCC700294, read-out: MIC S. pyogenes
[6] = system: Strenotrophomonas maltophilia ATCC 13637; assay: MIC determination by microbroth dilution; type: cell-based
M. tuberculosis H37Rv = assay: MIC determination by microbroth dilution, anti-tuberculosis activity; type: cell-based, Mycobacterium tuberculosis; conditions: Mycobacterium tuberculosis, H37RV, 168 h; read-out: MIC
[7] = system: Proteus mirabilis ATCC 25933; assay: MIC determination by microbroth dilution; type: cell-based; conditions: ATCC25933
B. anthracis Sterne 34F2 = assay: microbe, parasite or virus in culture; type: cell-based, Bacillus anthracis; conditions: Bacillus anthracis, STERNE34F2, read-out: MIC B. anthracis 34F2
[8] = system: Acinetobacter baumannii ATCC 19606; assay: MIC determination by microbroth dilution; type: cell-based; conditions: ATCC19606
[9] = system: Proteus vulgaris ATCC 33420; assay: MIC determination by microbroth dilution; type: cell-based; conditions: ATCC33420

Structure (SMILES) | MIC [1] | MIC (E. faecalis ATCC 33186) | IC50, 50% inhibition of luciferase biosynthesis in S30 assay (E. coli ribosomes) | MIC [2] | MIC (E. coli K12) | MIC (E. coli K12 ΔtolC) | MIC [3] | MIC (P. aeruginosa PAO1) | MIC [4] | MIC [5] | MIC [6] | MIC (M. tuberculosis H37Rv) | MIC [7] | MIC (B. anthracis Sterne 34F2) | MIC [8] | MIC [9]
CN[C@@H]1[C@H](O)[C@H](NC)C2O[C@]3(O)C(OC2[C@H]1O)O[C@H](C)C[C@H]3NC(=O)Cc1ccc(OC)cc1 (stereo partly drawn) [Compound 1446, 3′-Dihydro-3′-deoxy-4(R)-(4-methoxy-phenyl)acetylamino spectinomycin Dihydrochloride] | > 200 µg/mL | 200 µg/mL | 0.68 µg/mL | > 200 µg/mL | 200 µg/mL | > 200 µg/mL | 200 µg/mL | > 200 µg/mL | 6.25 µg/mL | 6.25 µg/mL | > 200 µg/mL | 12.5 µg/mL | > 200 µg/mL | 100 µg/mL | > 200 µg/mL | > 200 µg/mL
CN[C@@H]1[C@H](O)[C@H](NC)C2O[C@]3(O)C(OC2[C@H]1O)O[C@H](C)C[C@H]3NC(=O)Cc1ccc(-c2ccccc2)cn1 (stereo partly drawn) [Compound 1519, 3′-Dihydro-3′-deoxy-4(R)-(5-phenylpyridin-2-yl)acetylamino spectinomycin trihydrobromide] | > 200 µg/mL | 25 µg/mL |  | 100 µg/mL | > 200 µg/mL | 12.5 µg/mL | > 200 µg/mL | > 200 µg/mL | 3.1 µg/mL | 12.5 µg/mL | > 200 µg/mL | 3.12 µg/mL | > 200 µg/mL | > 200 µg/mL | > 200 µg/mL | > 200 µg/mL
CN[C@@H]1[C@H](O)[C@H](NC)C2O[C@]3(O)C(OC2[C@H]1O)O[C@H](C)C[C@H]3NC(=O)Cc1csc(Nc2ccc(C(F)(F)F)cc2)n1 (stereo partly drawn) [Compound 1541, 3′-Dihydro-3′-deoxy-4(R)-(2-((4-(trifluoromethyl)phenyl)amino)-thiazol-4-yl)acetylamino spectinomycin tribromide] | > 200 µg/mL | 25 µg/mL |  | 100 µg/mL | > 200 µg/mL | 12.5 µg/mL | > 200 µg/mL | 25 µg/mL | 3.1 µg/mL | 6.25 µg/mL | 200 µg/mL | 6.25 µg/mL | > 200 µg/mL | > 200 µg/mL | > 200 µg/mL | > 200 µg/mL
CN[C@@H]1[C@H](O)[C@H](NC)C2O[C@]3(O)C(OC2[C@H]1O)O[C@H](C)C[C@H]3NC(=O)[C@@H](N)Cc1ccccc1 (stereo partly drawn) [Compound 1515, 3′-Dihydro-3′-deoxy-4(R)-[2(S)-amino,3-phenyl]propanoylamino spectinomycin Trihydrochloride] | > 200 µg/mL | > 200 µg/mL |  | > 200 µg/mL | > 200 µg/mL | 12.5 µg/mL | > 200 µg/mL | > 200 µg/mL | 6.25 µg/mL | 12.5 µg/mL | > 200 µg/mL | 200 µg/mL | > 200 µg/mL | > 200 µg/mL | > 200 µg/mL | 100 µg/mL
CN[C@@H]1[C@H](O)[C@H](NC)C2O[C@]3(O)C(OC2[C@H]1O)O[C@H](C)C[C@H]3NC(=O)Cc1csc(Nc2cccc(F)c2)n1 (stereo partly drawn) [Compound 1539, 3′-Dihydro-3′-deoxy-4(R)-(2-((3-fluorophenyl)amino)thiazol-4-yl)acetylamino spectinomycin tribromide] | > 200 µg/mL | 25 µg/mL |  | 100 µg/mL | > 200 µg/mL | 12.5 µg/mL | > 200 µg/mL | > 200 µg/mL | 3.1 µg/mL | 3.1 µg/mL | > 200 µg/mL | 6.25 µg/mL | > 200 µg/mL | > 200 µg/mL | > 200 µg/mL | > 200 µg/mL
CN[C@@H]1[C@H](O)[C@H](NC)C2O[C@]3(O)C(OC2[C@H]1O)O[C@H](C)C[C@H]3NC(=O)Cc1ccc(C)cc1 (stereo partly drawn) [Compound 1399, 3′-Dihydro-3′-deoxy-4(R)-p-tolylacetylamino spectinomycin Dihydrochloride] | > 200 µg/mL | 200 µg/mL |  | 50 µg/mL | > 200 µg/mL | 100 µg/mL | > 200 µg/mL | 100 µg/mL | 25 µg/mL | 25 µg/mL | > 200 µg/mL | 6.1 µg/mL | > 200 µg/mL | 100 µg/mL | > 200 µg/mL | > 200 µg/mL
CN[C@@H]1[C@H](O)[C@H](NC)C2O[C@]3(O)C(OC2[C@H]1O)O[C@H](C)C[C@H]3NC(=O)Cc1ccc(-c2cccc(OC)c2)cn1 (stereo partly drawn) [Compound 1543, 3′-Dihydro-3′-deoxy-4(R)-(5-(3-methoxyphenyl)pyridin-2-yl)acetyl-amino spectinomycin tribromide] | > 200 µg/mL | 12.5 µg/mL |  | 100 µg/mL | > 200 µg/mL | < 6.25 µg/mL | > 200 µg/mL | > 200 µg/mL | 3.1 µg/mL | 6.25 µg/mL | 200 µg/mL | 6.25 µg/mL | > 200 µg/mL | > 200 µg/mL | > 200 µg/mL | > 200 µg/mL
CN[C@@H]1[C@H](O)[C@H](NC)C2O[C@]3(O)C(OC2[C@H]1O)O[C@H](C)C[C@H]3NC(=O)c1cccc2cccnc12 (stereo partly drawn) [Compound 1536, 3′-Dihydro-3′-deoxy-4(R)-(quinoline-8-yl)carbonylamino spec-tinomycin trihydrobromide] | > 200 µg/mL | > 200 µg/mL |  | > 200 µg/mL | > 200 µg/mL | > 200 µg/mL | > 200 µg/mL | > 200 µg/mL | 200 µg/mL | > 200 µg/mL | > 200 µg/mL | > 200 µg/mL | > 200 µg/mL | > 200 µg/mL | > 200 µg/mL | > 200 µg/mL
CN[C@@H]1[C@H](O)[C@H](NC)C2O[C@]3(O)C(OC2[C@H]1O)O[C@H](C)C[C@H]3NC(=O)[C@H](C)N (stereo partly drawn) [Compound 1467, 3′-Dihydro-3′-deoxy-4(R)-[2(S)-amino]propanoylamino spectinomycin Trihydrochloride] | > 200 µg/mL | > 200 µg/mL |  | > 200 µg/mL | 200 µg/mL | 200 µg/mL | > 200 µg/mL | > 200 µg/mL | 50 µg/mL | 50 µg/mL | 100 µg/mL | 200 µg/mL | 200 µg/mL | > 200 µg/mL | > 200 µg/mL | > 200 µg/mL
CN[C@@H]1[C@H](O)[C@H](NC)C2O[C@]3(O)C(OC2[C@H]1O)O[C@H](C)C[C@H]3NC(=O)Cc1ccc(Br)cn1 (stereo partly drawn) [Compound 1516, 3′-Dihydro-3′-deoxy-4(R)-(5-bromopyridin-2-yl)acetylamino spectinomycin trihydrobromide] | > 200 µg/mL | 100 µg/mL |  | 50 µg/mL | > 200 µg/mL | 12.5 µg/mL | > 200 µg/mL | > 200 µg/mL | 6.25 µg/mL | 6.25 µg/mL | > 200 µg/mL | 1.56 µg/mL | > 200 µg/mL | > 200 µg/mL | > 200 µg/mL | > 200 µg/mL
CN[C@@H]1[C@H](O)[C@H](NC)C2O[C@]3(O)C(OC2[C@H]1O)O[C@H](C)C[C@H]3NC(=O)Cc1cccnn1 (stereo partly drawn) [Compound 1449, 3′-Dihydro-3′-deoxy-4(R)-(pyridazin-3-yl)acetylamino spectinomycin tetra hydrobromide] | > 200 µg/mL | > 200 µg/mL |  | > 200 µg/mL | > 200 µg/mL | 100 µg/mL | > 200 µg/mL | > 200 µg/mL | 25 µg/mL | 200 µg/mL | > 200 µg/mL | 25 µg/mL | > 200 µg/mL | > 200 µg/mL | > 200 µg/mL | > 200 µg/mL
CN[C@@H]1[C@H](O)[C@H](NC)C2O[C@]3(O)C(OC2[C@H]1O)O[C@H](C)C[C@H]3NC(=O)C(c1ccccc1)c1ccccc1 (stereo partly drawn) [Compound 1514, 3′-Dihydro-3′-deoxy-4(R)-(2,2-diphenyl)acetylamino spectinomycin dihydrochloride] | > 200 µg/mL | > 200 µg/mL |  | > 200 µg/mL | > 200 µg/mL | > 200 µg/mL | > 200 µg/mL | > 200 µg/mL | > 200 µg/mL | > 200 µg/mL | > 200 µg/mL | > 200 µg/mL | > 200 µg/mL | > 200 µg/mL | > 200 µg/mL | > 200 µg/mL
